Holding throughout (assay type): cell-based, human
The subject of assay [1] is HAS2 (hyaluronic acid synthase 2). The assay can be described thus: UVB-induced senescence assay: HAS2 gene expression (qPCR). The conditions noted are these: UVB-irradiated HDF. How it is done: In the second approach, we established a method for inducing senescence in these cells with 2 cycles of UVB irradiation 72h apart (Figure 2A). The use of UVA to induce senescence was discarded due to its considerably longer time requirement, being unsuitable to screen 30 compounds within a reasonable period. Cells were treated with these compounds throughout the duration of the assay and cellular senescence was monitored with two markers: accumulation of SA-β-galactosidase (SA-β-Gal) activity, and the decrease in expression of HAS2 (hyaluronic acid synthase 2), a previously reported marker of skin senescence.
Figure 2 (A) Schematic representation of the protocol for senescence induction using UVB irradiation. Cells were treated -/+ the compounds from day 1 to 7 after seeding, irradiated with UVB on days 2 and 5 and harvested for analysis on day 7. […] (C) Phase-contrast (left column) and bright field (right column) microscope images of SA-β-Gal staining showing non-irradiated cells, UVB-irradiated cells non-treated and treated with Gallic acid or Shikimic acid at the indicated concentrations. (D) Percentage of SA-β-Gal positive cells and (E) Relative HAS2 mRNA levels in non-irradiated cells, UVB-irradiated cells and UVB-irradiated cells treated with Gallic acid or Shikimic acid at the indicated concentrations. Student T-test, *p<0.05, **p<0.01, ***p<0.001.
RNA was extracted from cell pellets using the Total RNA Purification Kit (Norgen, Canada), according to the manufacturer’s protocol. Extracted RNA was quantified using a NanoDrop® ND-1000 UV-Vis Spectrophotometer (Thermo Fisher Scientific, USA) and 300 ng of RNA were retrotranscribed to cDNA using the PrimeScriptTM RT reagent kit (Takara Bio Inc., Japan). cDNA was diluted 1/10 in ultrapure water and qPCR mix was prepared by adding cDNA (12 ng), SYBR green supermix (Bio Rad, USA), forward and reverse primers (0.2μM). The primers and their respective sequences are listed in Supplementary Table 1. qPCR protocol included one step at 95° C for 30 s, 40 cycles at 95° C for 10s, and 60° C for 1min. The results were analyzed with Bio-Rad CFX Manager software. BACT was used as a housekeeping gene to normalize gene expression.
Senescence induction by UVB irradiation For the non-irradiation control conditions, HDF were […]
After 24h, culture medium was removed and well plates. After 24h, culture medium was removed replaced by fresh cell culture medium containing the and replaced with fresh cell culture medium containing compounds at different concentrations. After 24h, the compounds at different concentrations. […]
cell culture medium was removed, and cells were cells/plate in fresh cell culture medium containing the irradiated at 25 mJ/cm2 of UVB light (312 nm) in a Bio- compound in 6-well plates. After 3 days, cells were […]
amount of PBS. PBS was then removed and fresh cell fresh cell culture medium containing the compound in culture medium with the compound was added to each 6-well plates. After 2 days, cells were processed well. After 3 days, cells were irradiated again under the according to the qPCR, β-Gal staining, apoptosis, cell same conditions. After 2 days, cells were processed cycle or immunofluorescence protocols. according to the qPCR, β-Gal staining, apoptosis, cell cycle or immunofluorescence protocols.

Assay [2] relates to IL-6. The experiment in a line: IL-6 mRNA levels (qPCR). The settings on record: UVB-irradiated HDF, SA 10, 25, 50 mM -/+ EX-527 1 μM. How it is done: Figure 3 (A) Schematic representation of the protocol for senescence induction using UVB irradiation and study of EX527 involvement in the effect of Shikimic acid. Cells were treated with or without shikimic acid -/+ EX-527 from day 1 until day 7 after seeding, irradiated with UVB on days 2 and 5 and harvested for analysis on day 7. (B) Phase-contrast (left column) and bright field (right column) microscope images of β-Gal staining showing non-irradiated cells non-treated and treated with shikimic acid (10, 25 and 50 mM), UVB-irradiated cells non-treated and treated with shikimic acid (10, 25 and 50 mM), shikimic acid (10, 25 and 50 mM) + EX-527 1 μM and EX-527 1 μM. […] SIRT1 activity was then evaluated by analyzing acetylation of H3K9, H4K16 and p53K382 by Western blot. […]
RNA was extracted from cell pellets using the Total RNA Purification Kit (Norgen, Canada), according to the manufacturer’s protocol. Extracted RNA was quantified using a NanoDrop® ND-1000 UV-Vis Spectrophotometer (Thermo Fisher Scientific, USA) and 300 ng of RNA were retrotranscribed to cDNA using the PrimeScriptTM RT reagent kit (Takara Bio Inc., Japan). cDNA was diluted 1/10 in ultrapure water and qPCR mix was prepared by adding cDNA (12 ng), SYBR green supermix (Bio Rad, USA), forward and reverse primers (0.2μM). […] The results were analyzed with Bio-Rad CFX Manager software. […]
(In general: Real-time PCR tracks product formation cycle by cycle.)

Assay [3] concerns H4K16ac (the target of SIRT1 and SIRT2). The assay can be described thus: Sirtuin activity assay in HDF: H4K16ac levels (Western blot). The conditions noted are these: UV conditions, -/+25mM SA -/+1μM EX-527. A general note: Immunoblotting shows a protein as a band on a membrane.

Each structure is given as a SMILES string.

For the compound `O=C(O)C1=C[C@@H](O)[C@@H](O)[C@H](O)C1` [Shikimic acid], the “HAS2 expression” value in assay [1] was “increase in HAS2 expression”. The “IL-6 mRNA levels” value in assay [2] is “induced a reduction in the levels of expression of the inflammatory cytokine IL-6”. For the same compound, the “H4K16ac/H4 levels under UV-induced senescence” value in assay [3] is “induced increased deacetylation of H3K9ac and H4K16ac”.

The values above are taken from publication PMC8148468, “Shikimic acid protects skin cells from UV-induced senescence through activation of the NAD+-dependent deacetylase SIRT1” (Aging (Albany NY), 2021).
